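The compound was tested at five concentrations on cells cultured in 96-well plates, with a 48-hour exposure period. At the TGI there is no net growth.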
Experiments:
Assay in all cases: NCI tumour cell line growth inhibition, 48 h
786-0 renal = system: 786-0 renal
A498 renal = system: A498 renal
A549 NSCLC = system: A549 NSCLC
ACHN renal = system: ACHN renal
BT-549 breast = system: BT-549 breast
CAKI-1 renal = system: CAKI-1 renal
COLO 205 colon = system: COLO 205 colon
DU-145 prostate = system: DU-145 prostate
EKVX NSCLC = system: EKVX NSCLC
HCC-2998 colon = system: HCC-2998 colon
HCT-116 colon = system: HCT-116 colon
HCT-15 colon = system: HCT-15 colon
HOP-62 NSCLC = system: HOP-62 NSCLC
HOP-92 NSCLC = system: HOP-92 NSCLC
HS 578T breast = system: HS 578T breast
HT29 colon = system: HT29 colon
IGROV1 ovarian = system: IGROV1 ovarian
K-562 leukemia = system: K-562 leukemia
KM12 colon = system: KM12 colon
LOX IMVI melanoma = system: LOX IMVI melanoma
M14 melanoma = system: M14 melanoma
MALME-3M melanoma = system: MALME-3M melanoma
MCF7 breast = system: MCF7 breast
MDA-MB-231 breast = system: MDA-MB-231 breast
MDA-MB-435 = system: MDA-MB-435
MDA-N = system: MDA-N
NCI-H226 lung = system: NCI-H226 lung
NCI-H23 lung = system: NCI-H23 lung
NCI-H460 lung = system: NCI-H460 lung
NCI-H522 lung = system: NCI-H522 lung
NCI/ADR-RES ovarian = system: NCI/ADR-RES ovarian
OVCAR-3 ovarian = system: OVCAR-3 ovarian
OVCAR-4 ovarian = system: OVCAR-4 ovarian
OVCAR-5 ovarian = system: OVCAR-5 ovarian
OVCAR-8 ovarian = system: OVCAR-8 ovarian
PC-3 prostate = system: PC-3 prostate
RPMI-8226 leukemia = system: RPMI-8226 leukemia
RXF 393 renal = system: RXF 393 renal
SF-268 CNS = system: SF-268 CNS
SF-295 CNS = system: SF-295 CNS
SF-539 CNS = system: SF-539 CNS
SK-MEL-2 melanoma = system: SK-MEL-2 melanoma
SK-MEL-28 melanoma = system: SK-MEL-28 melanoma
SK-MEL-5 melanoma = system: SK-MEL-5 melanoma
SK-OV-3 ovarian = system: SK-OV-3 ovarian
SN12C renal = system: SN12C renal
SNB-19 CNS = system: SNB-19 CNS
SNB-75 CNS = system: SNB-75 CNS
SR leukemia = system: SR leukemia
SW-620 colon = system: SW-620 colon
T-47D breast = system: T-47D breast
TK-10 renal = system: TK-10 renal
U251 CNS = system: U251 CNS
UACC-257 melanoma = system: UACC-257 melanoma
UACC-62 melanoma = system: UACC-62 melanoma
UO-31 renal = system: UO-31 renal
CCRF-CEM leukemia = system: CCRF-CEM leukemia
MOLT-4 leukemia = system: MOLT-4 leukemia
HL-60(TB) leukemia = system: HL-60(TB) leukemia

NC(N)=N/N=C(\c1ccc(Cl)cc1)C1CC1
TGI (786-0 renal): 32.5 µM | TGI (A498 renal): 32.3 µM | TGI (A549 NSCLC): > 100 µM | TGI (ACHN renal): 57.7 µM | TGI (BT-549 breast): 49.6 µM | TGI (CAKI-1 renal): > 100 µM | TGI (COLO 205 colon): 31 µM | TGI (DU-145 prostate): 57.4 µM | TGI (EKVX NSCLC): 83 µM | TGI (HCC-2998 colon): 19.4 µM | TGI (HCT-116 colon): 31 µM | TGI (HCT-15 colon): 40.2 µM | TGI (HOP-62 NSCLC): 37.7 µM | TGI (HOP-92 NSCLC): 62.6 µM | TGI (HS 578T breast): 78.3 µM | TGI (HT29 colon): 32.2 µM | TGI (IGROV1 ovarian): 31.8 µM | TGI (K-562 leukemia): 55.7 µM | TGI (KM12 colon): 35.8 µM | TGI (LOX IMVI melanoma): 30 µM | TGI (M14 melanoma): 30 µM | TGI (MALME-3M melanoma): 29 µM | TGI (MCF7 breast): 32.5 µM | TGI (MDA-MB-231 breast): 34.9 µM | TGI (MDA-MB-435): 34.7 µM | TGI (MDA-N): 30.8 µM | TGI (NCI-H226 lung): 33.2 µM | TGI (NCI-H23 lung): 73.1 µM | TGI (NCI-H460 lung): 29.9 µM | TGI (NCI-H522 lung): 31.3 µM | TGI (NCI/ADR-RES ovarian): 61.2 µM | TGI (OVCAR-3 ovarian): 50.4 µM | TGI (OVCAR-4 ovarian): > 100 µM | TGI (OVCAR-5 ovarian): 39.3 µM | TGI (OVCAR-8 ovarian): 40.4 µM | TGI (PC-3 prostate): 34.9 µM | TGI (RPMI-8226 leukemia): 37.9 µM | TGI (RXF 393 renal): > 100 µM | TGI (SF-268 CNS): > 100 µM | TGI (SF-295 CNS): 48.3 µM | TGI (SF-539 CNS): 32.3 µM | TGI (SK-MEL-2 melanoma): 34.5 µM | TGI (SK-MEL-28 melanoma): 38.2 µM | TGI (SK-MEL-5 melanoma): 29 µM | TGI (SK-OV-3 ovarian): 78.7 µM | TGI (SN12C renal): 42.3 µM | TGI (SNB-19 CNS): > 100 µM | TGI (SNB-75 CNS): 68.9 µM | TGI (SR leukemia): 29.1 µM | TGI (SW-620 colon): 35.2 µM | TGI (T-47D breast): 64.4 µM | TGI (TK-10 renal): 29.9 µM | TGI (U251 CNS): 27.2 µM | TGI (UACC-257 melanoma): 28 µM | TGI (UACC-62 melanoma): 29.3 µM | TGI (UO-31 renal): 79.9 µM

COc1ccc(N2C(=O)C3c4[nH]c5ccc(C)cc5c4C4CCC(C(C)C)CC4C3C2=O)cc1 (stereo unspecified)
TGI (786-0 renal): > 100 µM | TGI (A498 renal): > 100 µM | TGI (A549 NSCLC): > 100 µM | TGI (ACHN renal): > 100 µM | TGI (BT-549 breast): > 100 µM | TGI (CAKI-1 renal): > 100 µM | TGI (CCRF-CEM leukemia): > 100 µM | TGI (COLO 205 colon): > 100 µM | TGI (DU-145 prostate): > 100 µM | TGI (EKVX NSCLC): > 100 µM | TGI (HCC-2998 colon): > 100 µM | TGI (HCT-116 colon): > 100 µM | TGI (HCT-15 colon): > 100 µM | TGI (HOP-62 NSCLC): > 100 µM | TGI (HOP-92 NSCLC): > 100 µM | TGI (HS 578T breast): > 100 µM | TGI (HT29 colon): > 100 µM | TGI (IGROV1 ovarian): > 100 µM | TGI (K-562 leukemia): > 100 µM | TGI (KM12 colon): > 100 µM | TGI (LOX IMVI melanoma): > 100 µM | TGI (M14 melanoma): > 100 µM | TGI (MCF7 breast): > 100 µM | TGI (MDA-MB-231 breast): > 100 µM | TGI (MDA-MB-435): > 100 µM | TGI (MDA-N): > 100 µM | TGI (MOLT-4 leukemia): > 100 µM | TGI (NCI-H226 lung): > 100 µM | TGI (NCI-H23 lung): > 100 µM | TGI (NCI-H460 lung): > 100 µM | TGI (NCI-H522 lung): > 100 µM | TGI (NCI/ADR-RES ovarian): > 100 µM | TGI (OVCAR-3 ovarian): > 100 µM | TGI (OVCAR-4 ovarian): > 100 µM | TGI (OVCAR-5 ovarian): > 100 µM | TGI (OVCAR-8 ovarian): > 100 µM | TGI (PC-3 prostate): > 100 µM | TGI (RPMI-8226 leukemia): > 100 µM | TGI (SF-268 CNS): > 100 µM | TGI (SF-295 CNS): > 100 µM | TGI (SK-MEL-2 melanoma): > 100 µM | TGI (SK-MEL-28 melanoma): > 100 µM | TGI (SK-MEL-5 melanoma): > 100 µM | TGI (SK-OV-3 ovarian): > 100 µM | TGI (SN12C renal): > 100 µM | TGI (SNB-19 CNS): > 100 µM | TGI (SNB-75 CNS): 74.2 µM | TGI (SR leukemia): > 100 µM | TGI (SW-620 colon): > 100 µM | TGI (T-47D breast): > 100 µM | TGI (TK-10 renal): > 100 µM | TGI (U251 CNS): > 100 µM | TGI (UACC-257 melanoma): > 100 µM | TGI (UACC-62 melanoma): > 100 µM | TGI (UO-31 renal): > 100 µM

CC(CS(=O)(=O)Cc1ccccc1)C(N)=O (stereo unspecified)
TGI (786-0 renal): > 100 µM | TGI (A498 renal): > 100 µM | TGI (A549 NSCLC): > 100 µM | TGI (ACHN renal): > 100 µM | TGI (BT-549 breast): > 100 µM | TGI (CAKI-1 renal): > 100 µM | TGI (COLO 205 colon): > 100 µM | TGI (DU-145 prostate): > 100 µM | TGI (EKVX NSCLC): > 100 µM | TGI (HCT-116 colon): > 100 µM | TGI (HCT-15 colon): > 100 µM | TGI (HL-60(TB) leukemia): > 100 µM | TGI (HOP-62 NSCLC): > 100 µM | TGI (HOP-92 NSCLC): > 100 µM | TGI (HS 578T breast): > 100 µM | TGI (HT29 colon): > 100 µM | TGI (IGROV1 ovarian): > 100 µM | TGI (K-562 leukemia): > 100 µM | TGI (KM12 colon): > 100 µM | TGI (LOX IMVI melanoma): > 100 µM | TGI (M14 melanoma): > 100 µM | TGI (MALME-3M melanoma): > 100 µM | TGI (MCF7 breast): > 100 µM | TGI (MDA-MB-231 breast): > 100 µM | TGI (MDA-MB-435): > 100 µM | TGI (MDA-N): > 100 µM | TGI (MOLT-4 leukemia): > 100 µM | TGI (NCI-H226 lung): > 100 µM | TGI (NCI-H23 lung): > 100 µM | TGI (NCI-H460 lung): > 100 µM | TGI (NCI-H522 lung): > 100 µM | TGI (NCI/ADR-RES ovarian): > 100 µM | TGI (OVCAR-3 ovarian): > 100 µM | TGI (OVCAR-4 ovarian): > 100 µM | TGI (OVCAR-5 ovarian): > 100 µM | TGI (OVCAR-8 ovarian): > 100 µM | TGI (PC-3 prostate): > 100 µM | TGI (RPMI-8226 leukemia): > 100 µM | TGI (SF-268 CNS): > 100 µM | TGI (SF-295 CNS): > 100 µM | TGI (SF-539 CNS): > 100 µM | TGI (SK-MEL-2 melanoma): > 100 µM | TGI (SK-MEL-28 melanoma): > 100 µM | TGI (SK-MEL-5 melanoma): > 100 µM | TGI (SK-OV-3 ovarian): > 100 µM | TGI (SN12C renal): > 100 µM | TGI (SNB-19 CNS): > 100 µM | TGI (SR leukemia): > 100 µM | TGI (SW-620 colon): > 100 µM | TGI (T-47D breast): > 100 µM | TGI (TK-10 renal): > 100 µM | TGI (U251 CNS): > 100 µM | TGI (UACC-257 melanoma): > 100 µM | TGI (UACC-62 melanoma): > 100 µM | TGI (UO-31 renal): > 100 µM

Source: PubChem BioAssay (NCI)
